Legend:
[1] = Inhibition of Mycobacterium tuberculosis H37Rv Chorismate mutase
[2] = tested on: Mycobacterium tuberculosis H37Rv; test: Inhibition of Mycobacterium tuberculosis H37Rv Chorismate mutase at 30 uM relative to control
Plasmodium berghei = test: Antimalarial activity against liver stage of Plasmodium berghei ANKA harboring luciferase gene infected in human HepG2 cells pretreated for 1 hr followed by parasite infection measured after […] by Bright-Glo luminescence assay; assay type: functional, cell-based

With `COc1cc(CCNc2c([N+](=O)[O-])cc(C(=O)O)cc2S(N)(=O)=O)cc(OC)c1` the IC50 [1] was under 10000 nM.

For `O=C1NC2(CCCCCC2)Nc2ccccc21`, the inhibition [2] was 30 to 35%.

Work on `CCN(CC)CCN1C(=O)c2ccccc2NC1c1ccc(Cl)cc1` (centres undefined) yielded an EC50 (Plasmodium berghei) of 1400 nM.

For `O=C1NC2(Cc3ccccc3C2)Nc2ccc(I)cc21`, the inhibition [2] was 30 to 35%.

— ChEMBL document CHEMBL4038261, “Synthetic strategy with representation on mechanistic pathway for the therapeutic applications of dihydroquinazolinones” (Eur J Med Chem, 2016)
